In patent US8951796B2, “Methods and compositions for expanding and stabilizing natural regulatory T cells” (University of Southern California, priority 2010, dated 2015):

How the values were obtained:
nTregs = test: Expansion of nTregs with anti-CD3/28 coated beads and IL-2; assay type: cell-based, DBA/1 mice; conditions: one week, IL-2, with atRA
Description: (§1) To activate nTregs, CD25^+ or GFP^+ cells were stimulated with anti-CD3/CD28 coated beads (1:5, one bead to five cells), rmIL-2 (100 U/ml) (R&D) with DMSO or all-trans retinoic acid (atRA, 0.05 μM) for 3 days. To generate Th17 cells, these activated nTregs were stimulated with immobilized anti-CD3 (1 μg/ml), soluble anti-CD28 (1 μg/ml), anti-IL-4 (10 μg/ml) (BD biosciences), anti-IFN-γ and IL-6 (10 ng/ml) (BD Pharmingen) for 3 days.
(§2) For the data in FIGS. 2A and B, CD4^+CD25^+ cells were stimulated with anti-CD3/CD28 coated beads (1:5), rmIL-2 (100 U/ml) with DMSO or atRA (0.05 μM) for 7 days and the FOXP3 expression (A) and total Foxp3^+ cell numbers (B) were determined.

human nTregs = test: Expansion and FOXP3 expression of human nTregs from peripheral blood; assay type: cell-based
Description: In addition to mouse nTregs, atRA also stabilized FOXP3 expression of human nTregs. nTregs were isolated from human peripheral blood and expanded with anti-CD3/28 coated beads with IL-2 in the presence or absence of atRA. […] By ten days of culture control FOXP3+ cells increased 5 fold, but atRA treated nTregs increased 20 fold.

[1] = tested on: nTregs isolated from CIA mice; test: nTregs isolated from CIA mice: suppressive activity by proliferation of T responder cells; assay type: cell-based, mouse; conditions: anti-CD3 1 μg/ml, IL-6 10 ng/ml, atRA 0.05 μM, 7 days
Description: For the experiments in FIG. 7A, nTregs isolated from CIA mice were stimulated with immobilized anti-CD3 (1 μg/ml) and IL-6 (10 ng/ml) with and without atRA (0.05 μM) for 7 days. Phenotypic stability was measured by FOXP3 expression and suppressive activity was determined by the proliferation of T responder cells. CMP indicates the value of T responder cells. Values in FIG. 7A indicate the mean±SEM of three independent experiments. In the experiments in FIG. 7B, nTregs from CIA mice were expanded with anti-CD3/CD28 beads (1:5) and IL-2 (100 U/ml)±atRA (0.05 μM) for 4 days. Mice with established CIA were injected intravenously with 1×10^6 atRA treated nTregs, DMSO treated nTregs or PBS (control group) (n=6/group). The mice were examined every five days after injection and the clinical scores are indicated.

CD4+CD25+ nTregs [2] = test: Th17 conversion of nTregs stimulated with anti-CD3/CD28 and IL-6 (intracellular IL-17 FACS, soluble IL-17A ELISA); assay type: cell-based, DBA/1 mice
Description: as §1
Because atRA was dissolved in DMSO, similar volumes of DMSO was added to the cultures to exclude the possibility that atRA has a non-specific toxic effect on T cells (FIGS. 1A and B). For the data in FIGS. 1A and B, CD4^+CD25^+ cells were stimulated with immobilized anti-CD3 (1 μg/ml), soluble anti-CD28 (1 μg/ml) and IL-6 (10 ng/ml) with or without atRA (0.05 μM). 3 days later, these cells were restimulated with PMA (0.25 μg/ml) and ionomycin (0.25 μg/ml) for 5 h and brefeldin A (5 μg/ml) for 4 h, and then collected for intracellular IL-17 and IFN-γ staining. Values indicate mean±SEM of four separate experiments and representative of these experiments
(§3) In FIG. 1C, soluble IL-17A in the culture supernatants was analyzed by an ELISA. The horizontal line indicates the levels of IL-17A in the supernatant of naïve TCR-stimulated CD4^+ cells in the presence of IL-6 and TGF-β. E, the suppressive activities of nTregs in the presence of IL-6 and/or atRA were determined by the inhibition of tritiated thymidine ([^3H]-TdR) uptake.
For the experiments in FIG. 2D, CD4^+CD25^+ cells were activated as in FIG. 2A and re-stimulated with IL-6 as for the experiments in FIG. 1A described above. Intracellular IL-17 and IFN-γ expression was determined by FACS staining. Results are representative of three independent experiments. IL-17 and IFN-γ secreted into the supernatants was consistent with intracellular cytokine expression (data not shown).

[3] = tested on: IL-6R (CD126, CD130), STAT3, ROR-γt in nTregs; test: IL-6 receptor expression and signaling in nTregs by flow cytometry; assay type: cell-based, mouse
Description: One potential mechanism by which atRA treatment stabilizes phenotype of nTregs, particularly suppressive function, may be through downregulation of the expression of IL-6R and IL-6R signaling. To investigate this potential mechanism, CD4^+CD25^+ cells were stimulated with anti-CD3/CD28 coated beads and IL-2 with or without atRA for 4 days. […] CD126 (IL-6Rα chain) expression was determined by flow cytometry. […] When atRA-treated nTregs were restimulated with IL-6, the decrease in IL-6 signaling was accompanied by a decrease of expression of ROR-γt (FIG. 4B), the crucial transcription factor required for Th17 cell differentiation. This finding is in agreement with reports that the combination of IL-2 and TGF-β has dramatic effects on both IL-6 receptor expression and signaling on nTreg cells. […] The p values indicate significant differences between DMSO treated and atRA treated nTregs (p<0.05, t test).

CD4+CD25+ nTregs [4] = test: FOXP3 expression of activated/expanded nTregs by FACS intracellular staining; assay type: cell-based, DBA/1 mice
Description: as §1
For the experiments in FIG. 1D, nTregs were activated with anti-CD3/CD28 coated beads in the presence of the atRA solvent (DMSO) or atRA (0.05 μM) with or without IL-6 (10 ng/ml) for 3 days and Foxp3 expression was determined and compared to freshly isolated CD4^+CD25^+ cells by FACS intracellular staining.
as §2

IL-6 Rα mRNA, p-Stat3 = conditions: cited from earlier work
T responder cells = test: Suppressor assay: inhibition of [3H]-TdR uptake of T responder cells by nTregs; assay type: cell-based, DBA/1 mice
Description: To measure suppressive activities, responder T cells were stimulated with soluble anti-CD3 (0.025 μg/ml) and irradiated APC (1:1), nTregs pretreated with at-RA or without atRA were added to cultures at a ratio of 1:4 (one nTreg to four responder cells). After 72-hour cultures, triplicate wells were pulsed with 1 μCi of [^3H]-TdR for the final 16 hours. Cell proliferation was determined by [^3H]-TdR incorporation using scintillation counting.
as §3
In FIG. 2F, the suppressive activities of atRA or DMSO treated nTregs in the absence or presence of IL-6 in vitro was determined by similar methods as in FIG. 1E. P values were calculated by Student's test and indicate significant differences between atRA and control treated nTregs (P<0.05).

[5] = anti-CD3/CD28 beads, IL-2, atRA, 4 days

Q: For `CC1=C(/C=C/C(C)=C/C=C/C(C)=C/C(=O)O)C(C)(C)CCC1` [atRA, all-trans retinoic acid], which “expansion of nTregs” value (nTregs) is on record?
A: Its value is “eight-fold”.

Q: What about the “total number of FOXP3+ cells” value (human nTregs; human nTregs) of the same compound?
A: The value was “significantly increased”.

Q: What about the “percentage of nTregs expressing FOXP3” value (human nTregs; human nTregs proliferating in culture, some cultures with IL-1 and/or IL-6) of the same compound?
A: Its value is “decreased significantly less than control nTregs”.

Q: And the “increase of FOXP3+ cells” value (human nTregs; human nTregs, ten days of culture)?
A: Its value is 20 fold.

Q: And the “suppressive activity of nTregs from CIA mice” value [1]?
A: Its value is “show suppressive activity”.

Q: What about the “activation and proliferation status of nTregs” value (CD4+CD25+ nTregs [2]; addition of atRA) of the same compound?
A: The value was “did not affect”.

Q: And the “intracellular IL-17 production” value (CD4+CD25+ nTregs [2]; atRA 0.05 μM added to cultures with IL-6 (10 ng/ml), 3 days)?
A: The value was “completely blocked”.

Q: What about the “soluble IL-17 production” value (CD4+CD25+ nTregs [2]; atRA 0.05 μM added to cultures with IL-6 (10 ng/ml), ELISA of supernatants) of the same compound?
A: Its value is “completely blocked”.

Q: And the “Th17 and Th1 conversion of expanded nTregs” value (CD4+CD25+ nTregs [2]; nTregs expanded with atRA, restimulated with anti-CD3/28 beads with IL-6)?
A: Its value is “completely resistant”.

Q: What about the “Stat-3 activation in nTregs” value ([3]; addition of atRA) of the same compound?
A: Its value is “significantly decreased”.

Q: What about the “CD126 (IL-6Rα chain) expression in activated nTregs” value [3, 5] of the same compound?
A: The value was “markedly decreased”.

Q: And the “IL-6 Rβ (CD130) expression” value [3, 5]?
A: The value was “significantly decreased”.

Q: And the “expression of ROR-γt” value ([3]; atRA-treated nTregs restimulated with IL-6)?
A: Its value is “decrease”.

Q: And the “FOXP3 expressed by nTregs expanded with atRA” value (CD4+CD25+ nTregs [4]; atRA 0.05 μM, IL-2 100 U/ml, 7 days)?
A: Its value is “remained stable”.

Q: And the “down-regulation of FOXP3 expression in the presence of IL-6” value (CD4+CD25+ nTregs [4]; atRA 0.05 μM, IL-6 10 ng/ml, 3 days, vs DMSO cultures)?
A: Its value is “almost completely prevented”.

Q: And the “FOXP3 expression following re-stimulation with IL-6” value (CD4+CD25+ nTregs [4]; nTregs previously treated with atRA)?
A: Its value is “maintained FOXP3 expression”.

Q: What about the “levels of p-Stat3 expression induced by IL-6 plus TGF-β” value (IL-6 Rα mRNA, p-Stat3) of the same compound?
A: Its value is “decreases”.

Q: And the “up-regulation of IL-6 Rα mRNA induced by TGF-β” value (IL-6 Rα mRNA, p-Stat3)?
A: The value was “strongly inhibits”.

Q: And the “suppressive activity of nTregs in the presence of IL-6” value (T responder cells; atRA added to the cultures with IL-6)?
A: Its value is “maintained the suppressive activity”.

Q: And the “T cell response with atRA alone” value (T responder cells; in the presence of IL-6, in the absence of nTregs)?
A: The value was “did not suppress”.

Q: And the “suppressive function after restimulation with IL-6” value (T responder cells; nTregs expanded in the presence of atRA, washed)?
A: Its value is “completely intact”.

Q: What about the “suppressive activities of nTregs expanded with atRA” value (T responder cells; vs nTregs expanded without atRA) of the same compound?
A: Its value is “even superior”.
